Measured values: PMC8187479, “Sugar phosphate activation of the stress sensor eIF2B” (Nature Communications, 2021)

Target: T1, eIF2Bα (Homo sapiens, UniProt Q14232)
T1 construct: made in house; host or cells: E. coli BL21(DE3)
T1 sequence (Q14232 1-305): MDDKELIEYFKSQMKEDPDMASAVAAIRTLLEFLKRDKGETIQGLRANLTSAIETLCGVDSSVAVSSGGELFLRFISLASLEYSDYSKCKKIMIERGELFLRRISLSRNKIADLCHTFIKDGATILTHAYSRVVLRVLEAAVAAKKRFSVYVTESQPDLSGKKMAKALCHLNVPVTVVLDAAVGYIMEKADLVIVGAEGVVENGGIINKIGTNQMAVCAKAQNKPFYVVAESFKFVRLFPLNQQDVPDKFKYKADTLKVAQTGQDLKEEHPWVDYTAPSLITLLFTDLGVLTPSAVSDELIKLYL
Test: MIDAS (mass spectrometry integrated with equilibrium dialysis) metabolite binding screen
In short: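 Hits called at Storey q < 0.1 on z-scores of PCA-corrected log2 fold change between protein and metabolite chambers, quantified by FIA-MS in triplicate.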

[1] = MIDAS metabolite binding screen with eIF2Bα, sheet "eIF2Ba"
[2] = MIDAS screen, sheet eIF2Ba, metabolites screened in pools 1-4, p-value and q-value given

With `CC(=O)N[C@@H](CCCCN)C(=O)O` [Nalpha-Acetyl-L-lysine] the “log2(corrected fold change)” value [1] was -0.03422.
For `O=C(O)[C@H](O)[C@@H](O)[C@H](O)[C@H](O)COP(=O)(O)O` [6-Phosphogluconic acid], the “log2(corrected fold change)” value [2] was -0.1601.
With `O=CC[C@H](O)[C@H](O)CO` [2-Deoxy-D-ribose] the “log2(corrected fold change)” value [2] was -0.2249.
With `NCC(O)CCC(N)C(=O)O` (racemic) [DL-5-Hydroxylysine] the “log2(corrected fold change)” value [2] was -0.09937.
`CC(O)CC(=O)SCCNC(=O)CCNC(=O)[C@H](O)C(C)(C)COP(=O)(O)OP(=O)(O)OC[C@H]1O[C@@H](n2cnc3c(N)ncnc32)[C@H](O)[C@@H]1OP(=O)(O)O` (some centres unmarked) [3-Hydroxybutyryl coenzyme A] was tested, and the “log2(corrected fold change)” value [1] was 0.00715.
With `N[C@H](CC(=O)O)C(=O)O` [D-Aspartate] the “log2(corrected fold change)” value [2] was 0.03257.
For `O=C(CO)[C@@H](O)[C@H](O)[C@H](O)[C@H](O)COP(=O)(O)O` [D-Sedoheptulose 7-phosphate], the “log2(corrected fold change)” value [1] was -0.01312.
In the case of `NC1CCCNC1=O` (centres unmarked) [3-Aminopiperidin-2-one], the “log2(corrected fold change)” value [1] is reported as 0.003124.
In the case of `CC(=O)N[C@H]1C(O)O[C@H](CO)[C@@H](O)[C@@H]1O[C@H](C)C(=O)O` (some centres unmarked) [N-Acetylmuramic acid], the “log2(corrected fold change)” value [1] is reported as 0.002532.
With `CC(=O)NC1C(OP(=O)(O)OP(=O)(O)OCC2OC(n3ccc(=O)[nH]c3=O)C(O)C2O)OC(CO)C(O)C1O` (centres unmarked) the “log2(corrected fold change)” value [1] was -0.0409.
In the case of `CC(C)CC(O)C(=O)O` (centres unmarked) [2-Hydroxyisocaproic acid], the “log2(corrected fold change)” value [1] is reported as -0.0302.
`COc1cccc(C(=O)O)c1N` [2-Amino-3-methoxybenzoic acid] was tested, and the “log2(corrected fold change)” value [2] was -0.1539.
For `NC(=O)c1ncn([C@@H]2O[C@H](CO)[C@@H](O)[C@H]2O)c1N` [AICAR], the “log2(corrected fold change)” value [2] was 0.005355.
In the case of `O=c1[nH]c(=O)c2ncn([C@@H]3O[C@H](COP(=O)(O)O)[C@@H](O)[C@H]3O)c2[nH]1` [Xanthosine 5-monophosphate], the “log2(corrected fold change)” value [2] is reported as -0.169.
For `O=C(O)C[C@H](Nc1ncnc2c1ncn2[C@@H]1O[C@H](COP(=O)(O)O)[C@@H](O)[C@H]1O)C(=O)O` [Adenylosuccinic acid], the “log2(corrected fold change)” value [2] was -0.03472.
In the case of `CC(=O)N[C@H]1C(OP(=O)(O)O)O[C@H](CO)[C@@H](O)[C@@H]1O` (stereo partly drawn) [N-Acetyl-D-glucosamine 1-phosphate], the “log2(corrected fold change)” value [1] is reported as -0.08166.
`C[N+](C)(C)CCO` [Choline] was tested, and the “log2(corrected fold change)” value [2] was -0.1774.
In the case of `Nc1ccccc1C(=O)O` [Anthranilate], the “log2(corrected fold change)” value [2] is reported as -0.04243.
In the case of `OCC(O)c1ccc(O)c(O)c1` (racemic) [DL-3,4-Dihydroxyphenyl glycol], the “log2(corrected fold change)” value [2] is reported as -0.07769.
For `OC[C@H]1OC(O)[C@@H](O)[C@@H](O)[C@@H]1O` (stereo partly drawn) [D-Mannose], the “log2(corrected fold change)” value [1] was -0.01874.
For `CC(CNC(N)=O)C(=O)O` (racemic) [DL-3-Ureidoisobutyric acid], the “log2(corrected fold change)” value [2] was 0.1976.
`CC(=O)N[C@@H]1[C@@H](O)[C@H](O)[C@@H](CO)O[C@@H]1O` [N-Acetyl-D-glucosamine] was tested, and the “log2(corrected fold change)” value [2] was 0.3673.
For `N[C@@H](Cc1c[nH]c2ccc(O)cc12)C(=O)O` [5-Hydroxy-L-tryptophan], the “log2(corrected fold change)” value [2] was -0.8537.
For `O[C@@H]1[C@@H](O)[C@@H](O)CO[C@H]1O` [L-Arabinose], the “log2(corrected fold change)” value [2] was -0.1354.
`Cc1ncc(CO)c(CN)c1O` [Pyridoxamine] was tested, and the “log2(corrected fold change)” value [1] was 0.0724.
`Nc1ncnc2c1ncn2[C@@H]1O[C@H](CO)[C@@H](O)[C@H]1O` [Adenosine] was tested, and the “log2(corrected fold change)” value [1] was 0.2973.
With `OC[C@H]1O[C@@H](O[C@H]2[C@H](O)[C@@H](O)[C@H](O)O[C@@H]2CO)[C@H](O)[C@@H](O)[C@@H]1O` [D-Cellobiose] the “log2(corrected fold change)” value [1] was -0.03103.
With `O=C(O)CC[C@@H](O)C(=O)O` [D-alpha-Hydroxyglutaric acid] the “log2(corrected fold change)” value [1] was -0.0058.
With `Cc1ncc(CO)c(C(=O)O)c1O` [4-Pyridoxic acid] the “log2(corrected fold change)” value [1] was 0.06772.
With `Nc1nc2c(ncn2[C@H]2C[C@H](O)[C@@H](COP(=O)(O)O)O2)c(=O)[nH]1` [Deoxyguanylate] the “log2(corrected fold change)” value [2] was 0.08261.
With `O=C(O)C(COP(=O)(O)O)OP(=O)(O)O` [2,3-Diphospho-D-glyceric acid] the “log2(corrected fold change)” value [1] was 0.003153.
With `NC(=O)CC[C@H](N)C(=O)O` [L-Glutamine] the “log2(corrected fold change)” value [2] was 0.1976.
In the case of `CC(=O)N[C@@H]1C(O)O[C@H](CO)[C@@H](O)[C@@H]1O` (stereo partly drawn) [N-Acetyl-D-mannosamine], the “log2(corrected fold change)” value [1] is reported as 0.03658.
For `O=C(COP(=O)(O)O)[C@@H](O)[C@H](O)[C@H](O)COP(=O)(O)O` [D-Fructose 1,6-bisphosphate], the “log2(corrected fold change)” value [2] was -0.7792.
With `N[C@@H](CS(=O)(=O)O)C(=O)O` [L-Cysteic acid] the “log2(corrected fold change)” value [1] was 0.001606.
`O=C1C[C@@H](C(=O)O)NC(=O)N1` [L-Dihydroorotic acid] was tested, and the “log2(corrected fold change)” value [2] was -0.07946.
In the case of `CC(=O)N[C@H]1[C@H](O[C@H]2[C@H](O)[C@@H](NC(C)=O)C(O)O[C@@H]2CO)O[C@H](CO)[C@@H](O)[C@@H]1O` (some centres unmarked) [N,N-Diacetylchitobiose], the “log2(corrected fold change)” value [2] is reported as 0.08913.
In the case of D-Glucose 6-phosphate, the “log2(corrected fold change)” value [2] is reported as -0.1344.
For `O=Cc1cc(O)ccc1O` [2,5-Dihydroxybenzaldehyde], the “log2(corrected fold change)” value [2] was 0.1295.
For `C[C@H](O)C(=O)O` [L-Lactic acid], the “log2(corrected fold change)” value [1] was -0.02892.
For `O=C(O)[C@@H]1C[C@@H](O)CN1` [Trans-4-Hydroxy-L-proline], the “log2(corrected fold change)” value [1] was 0.008003.
In the case of `O=C(O)[C@@H]1CCCCN1` [L-Pipecolic acid], the “log2(corrected fold change)” value [2] is reported as -0.07553.
`CCC(=O)NCC(=O)O` [Propionylglycine] was tested, and the “log2(corrected fold change)” value [2] was 0.07527.
`O=C(CO)[C@@H](O)[C@H](O)[C@H](O)CO` [D-Fructose] was tested, and the “log2(corrected fold change)” value [2] was -0.09045.
For `Cc1cn([C@H]2C[C@H](O)[C@@H](CO)O2)c(=O)[nH]c1=O` [Thymidine], the “log2(corrected fold change)” value [2] was 0.1162.
With `CC(=CC(=O)O)CC(=O)O` [3-Methylglutaconic acid] the “log2(corrected fold change)” value [1] was -0.01192.
`CCCCCCCC(=O)SCCNC(=O)CCNC(=O)C(O)C(C)(C)COP(=O)(O)OP(=O)(O)OC[C@H]1O[C@@H](n2cnc3c(N)ncnc32)[C@H](O)[C@@H]1OP(=O)(O)O` (some centres unmarked) [Octanoyl coenzyme A] was tested, and the “log2(corrected fold change)” value [1] was 0.3691.
`C[N+](C)(C)CCOP(=O)(O)OP(=O)([O-])OC[C@H]1O[C@@H](n2ccc(N)nc2=O)[C@H](O)[C@@H]1O` [Cytidine 5-diphosphocholine] was tested, and the “log2(corrected fold change)” value [1] was -0.000615.
With `NC(CCCC(=O)O)C(=O)O` (centres unmarked) [2-Aminoadipic acid] the “log2(corrected fold change)” value [2] was -0.07731.
`CCC(C)C(=O)NCC(=O)O` (centres unmarked) [a-Methylbutyrylglycine] was tested, and the “log2(corrected fold change)” value [1] was -0.07333.
With `O=C(O)CNC(=O)c1ccco1` [N-2-Furoylglycine] the “log2(corrected fold change)” value [2] was -0.1649.
In the case of `CSCCC(=O)C(=O)O` [4-Methylthio-2-oxobutanoic acid], the “log2(corrected fold change)” value [2] is reported as 0.0884.
With `O=C(O)c1cc(O)ccc1O` [2,5-Dihydroxybenzoic acid] the “log2(corrected fold change)” value [1] was 0.05271.
`O=C(O)C[C@H](O)[C@H](O)CO` [2-Deoxy-D-ribonic acid] was tested, and the “log2(corrected fold change)” value [1] was -0.009975.
With `Nc1c(O)cccc1C(=O)O` [3-Hydroxyanthranilic acid] the “log2(corrected fold change)” value [1] was -0.02136.
`CC[C@@H](C)[C@H](N)C(=O)O` [L-Alloisoleucine] was tested, and the “log2(corrected fold change)” value [1] was -0.00688.
`N[C@@H](CCSC[C@H](N)C(=O)O)C(=O)O` [L-Cystathionine] was tested, and the “log2(corrected fold change)” value [1] was -0.03443.
In the case of `O=C(O)CCCC(=O)O` [Glutaric acid], the “log2(corrected fold change)” value [1] is reported as -0.03876.
In the case of `O=C(O)[C@@H](O)[C@H](O)[C@H](O)CO` [D-Arabinonic acid], the “log2(corrected fold change)” value [1] is reported as -0.01209.
For `O=C(CO)COP(=O)(O)O` [Glycerone phosphate], the “log2(corrected fold change)” value [2] was 0.09175.
`CNCC(=O)O` [Sarcosine] was tested, and the “log2(corrected fold change)” value [2] was -0.1398.
Benzoate was tested, and the “log2(corrected fold change)” value [2] was 0.4135.
With `OC[C@@H](O)C(O)[C@H](O)CO` [D-Arabitol] the “log2(corrected fold change)” value [1] was 0.006339.
With `O=C(O)CCCC(=O)C(=O)O` [2-Oxoadipic acid] the “log2(corrected fold change)” value [1] was -0.03769.
For `O=C(O)CC(O)(CC(=O)O)C(=O)O` [Citric acid], the “log2(corrected fold change)” value [1] was -0.01609.
In the case of `CC(C)(CO[P@@](=O)(O)O[P@@](=O)(O)OC[C@H]1O[C@@H](n2cnc3c(N)ncnc32)[C@H](O)[C@@H]1OP(=O)(O)O)[C@@H](O)C(=O)NCCC(=O)NCCSC(=O)CC(=O)O` [Malonyl coenzyme A], the “log2(corrected fold change)” value [1] is reported as -0.02331.
With `OC[C@@H](O)[C@H](O)[C@H](O)[C@@H](O)CO` [Dulcitol] the “log2(corrected fold change)” value [2] was -0.4944.
With `O=c1[nH]cnc2c1ncn2[C@@H]1O[C@H](COP(=O)(O)OP(=O)(O)OP(=O)(O)O)[C@@H](O)[C@H]1O` [Inosine 5-triphosphate] the “log2(corrected fold change)” value [2] was -0.2055.
